Results on 13 compounds are retold here after paper PMC12164026, “Plant-derived nodule-specific cysteine-rich peptides as potent antifungal agents against Cryptococcus neoformans: mechanisms of action, chimeric peptide enhancement, and immunomodulatory effects” (Current Research in Microbial Sciences, 2025).

Assay [1] has as its system Cryptococcus neoformans IFM 5844. The assay is described as follows: microbe, parasite or virus in culture. To be noted: five-fold diluted YNB + 1 % dextrose, 5 × 10^4 cells/mL, 30 °C, 72 h, OD 620 nm, ≥ 90 % growth inhibition, tested 25 to 0.39 µM, three biological replicates. In kind it is cell-based. On the procedure:
The susceptibility of Cryptococcus neoformans IFM 5844 to 20 peptides (Supplementary Table 1) was tested in a widely used synthetic medium to cultivate yeasts (YNB) and in a serum-free medium what is able to support the proliferation of macrophage cells (X-VIVO).
YNB medium: five-fold diluted Difco Yeast Nitrogen Base w/o Amino Acids medium (Becton, Dickinson and Company, Sparks, MD, USA) supplemented with 1 % dextrose
The minimal inhibitory concentration (MIC) of each peptide was determined by using micro-dilution assay. The C. neoformans suspensions were adjusted to 5 × 10^4 cells/mL concentration in either YNB or X-VIVO medium. A 96-well microtiter plate was prepared by adding 95 µL suspension per well followed by 5 µL of serially two-fold diluted peptide solutions achieving a final volume of 100 µl. The concentration of the peptides ranged from 25 to 0.39 µM. For control samples, 5 µL pure medium was added to the yeast cell suspension instead of peptides. Plates were incubated at 37 °C for 48 h in X-VIVO medium and 30 °C for 72 h in YNB medium. After incubation, optical density was measured at 620 nm using a SPECTROstar Nano plate reader (BMG LabTech, Offenburg, Germany). […] The experiments were carried out in three independent biological replicates.

The subject of assay [2] is C. neoformans IFM 5844 cells. The assay is described as follows: Cell membrane permeability, calcein-AM assay by flow cytometry. Type of assay: cell-based, Cryptococcus neoformans. To be noted: half-MIC, 2 h, 30 °C, YNB. The procedure:
The effect of the peptides on the cell membrane permeability of C. neoformans IFM 5844 cells was checked by flow cytometry with calcein-AM assay ([Olson, et al., 2001]). Calcein-acetoxymethyl ester (calcein-AM) is a membrane-permeable live-cell dye that, upon entering the cell, is cleaved by intracellular esterases, converting it into calcein, a membrane-impermeable fluorescent marker. The assay was carried out by suspending a total of 1 × 10^7 cells in 100 µl YNB medium containing 20 µg/mL indomethacin (Sigma-Aldrich, Saint Louis, MO, USA) and incubating them at 30 °C for 30 min to inhibit calcein transporters. Following this pre-treatment, membrane-permeable calcein-AM (Invitrogen, Waltham, MA, USA) was added to a final concentration of 5 µg/mL, and the samples were incubated at 30 °C for 3 h allowing the calcein-AM to enter the cells where esterases converted it to fluorescent calcein. After incubation, cells were washed twice with sterile distilled water and subsequently exposed to peptides at half-MIC concentrations in YNB medium for 2 h at 30 °C. Following peptide treatment, cells were washed twice with sterile distilled water, and fluorescence intensity was measured using a FlowSight® flow cytometer (Amnis-EMD Millipore) equipped with a 488-nm excitation laser. Intact cells stained with calcein-AM but not exposed to peptides served as controls. To ensure statistical reliability, four independent experiments were conducted, and fluorescence intensity was recorded from 10,000 cells per sample during each experiment.

For assay [3], the system named is Cryptococcus neoformans IFM 5844. The assay is described as follows: Minimal fungicidal concentration (MFC) determination, spotting on YPD. In kind it is cell-based. As to conditions: cultures from MIC assays diluted and spotted onto solid YPD, 30 °C, 48 h. The procedure:
Minimal fungicidal concentration (MFC) determination. To assess fungicidal activity, both control and peptide-treated cultures from the MIC assays were diluted 10-fold and 100-fold in sterile distilled water. Five µL from each dilution was then spotted onto solid YPD medium (1 % pepton, 1 % dextrose, 0.5 % yeast extract, 2 % agar). The plates were incubated at 30 °C for 48 h and fungal growth was evaluated. MFC was defined as the lowest peptide concentration at which no visible fungal growth was detected, indicating complete fungicidal activity.

[4] abbreviates: Cryptococcus neoformans, IFM5844, read-out: MIC.

Read-outs that look alike come from different tables or passages of the source. Bridge positions count the residues as written; N and C are the ends. Peptide text beside a SMILES is read from it.

With `OC(Cn1cncn1)(Cn1cncn1)c1ccc(F)cc1F` [Fluconazole, fluconazole, reference compound], the MIC in assay [1] (setting [4]) was 12.5 µM. As to `CC[C@H](C)[C@H](NC(=O)[C@H](CCCCN)NC(=O)[C@H](Cc1ccccc1)NC(=O)[C@H](CC(C)C)NC(=O)[C@@H]1CCCN1C(=O)[C@H](CCCCN)NC(=O)[C@H](CCCCN)NC(=O)[C@H](CO)NC(=O)[C@@H](N)CCCCN)C(=O)N[C@@H](C)C(=O)N[C@@H](CCCCN)C(=O)N[C@@H](CS)C(=O)N[C@H](C(=O)N[C@@H](CCC(=O)O)C(=O)N[C@@H](CC(N)=O)C(=O)N[C@H](C(=O)N[C@@H](CS)C(=O)N[C@H](C(=O)N[C@@H](CC(C)C)C(=O)N[C@@H](C)C(=O)N[C@@H](Cc1ccc(O)cc1)C(=O)N[C@@H](CCCCN)C(N)=O)C(C)C)C(C)C)C(C)C` [NCR169C17–38W10,20/A] (H-KSKKPLFKIAKCVENVCVLAYK-NH2; N-terminus assumed), the “calcein leakage / membrane permeability disruption” value in assay [2] was “highest calcein leakage”. The “fungistatic or fungicide mode of action” value in assay [3] is listed as “fungicidal effect”. In assay [1] (read-out: MIC), the MIC is 6.25 µM. In the same order, the values of `CC[C@H](C)[C@H](NC(=O)[C@H](CCCCN)NC(=O)[C@H](Cc1ccccc1)NC(=O)[C@H](CC(C)C)NC(=O)[C@@H]1CCCN1C(=O)[C@H](CCCCN)NC(=O)[C@H](CCCCN)NC(=O)[C@H](CO)NC(=O)[C@@H](N)CCCCN)C(=O)N[C@@H](Cc1c[nH]c2ccccc12)C(=O)N[C@@H](CCCCN)C(=O)N[C@@H](CS)C(=O)N[C@H](C(=O)N[C@@H](CCC(=O)O)C(=O)N[C@@H](CC(N)=O)C(=O)N[C@H](C(=O)N[C@@H](CS)C(=O)N[C@H](C(=O)N[C@@H](CC(C)C)C(=O)N[C@@H](Cc1c[nH]c2ccccc12)C(=O)N[C@@H](Cc1ccc(O)cc1)C(=O)N[C@@H](CCCCN)C(N)=O)C(C)C)C(C)C)C(C)C` [NCR169C17–38] (H-KSKKPLFKIWKCVENVCVLWYK-NH2; N-terminus assumed) are “highest calcein leakage”, “fungicidal effect” and 3.12 µM. For the compound `CC[C@H](C)[C@H](NC(=O)[C@H](CCCCN)NC(=O)[C@H](Cc1ccccc1)NC(=O)[C@H](CC(C)C)NC(=O)[C@@H]1CCCN1C(=O)[C@H](CCCCN)NC(=O)[C@H](CCCCN)NC(=O)[C@H](CO)NC(=O)[C@@H](N)CCCCN)C(=O)N[C@@H](Cc1c[nH]c2ccccc12)C(=O)N[C@@H](CCCCN)C(=O)N[C@H]1CSSC[C@@H](C(=O)N[C@H](C(=O)N[C@@H](CC(C)C)C(=O)N[C@@H](Cc2c[nH]c3ccccc23)C(=O)N[C@@H](Cc2ccc(O)cc2)C(=O)N[C@@H](CCCCN)C(N)=O)C(C)C)NC(=O)[C@H](C(C)C)NC(=O)[C@H](CC(N)=O)NC(=O)[C@H](CCC(=O)O)NC(=O)[C@H](C(C)C)NC1=O` [NCR169C17–38ox] (H-KSKKPLFKIWKCVENVCVLWYK-NH2; disulfide 12-17; N-terminus assumed), the “fungistatic or fungicide mode of action” value in assay [3] is “fungicidal effect”. In addition, the MIC in assay [1] (read-out: MIC) is 3.12 µM. As to `CC(C)C[C@H](NC(=O)[C@@H]1CCCN1C(=O)[C@H](CCCNC(=N)N)NC(=O)[C@H](CCCNC(=N)N)NC(=O)[C@H](CS)NC(=O)[C@H](CCC(N)=O)NC(=O)[C@@H](N)CCC(N)=O)C(=O)N[C@@H](Cc1ccc(O)cc1)C(=O)N[C@@H](CS)C(=O)N[C@@H](CCCNC(=N)N)C(=O)N[C@@H](CCCNC(=N)N)C(=O)N[C@@H](CCCNC(=N)N)C(N)=O` [NCR247C] (H-QQCRRPLYCRRR-NH2; N-terminus assumed), in assay [2], the “calcein leakage / membrane permeability disruption” value is reported as “highest calcein leakage”. The “fungistatic or fungicide mode of action” value in assay [3] is on record as “fungicidal effect”. Further, the MIC in assay [1] (read-out: MIC) came to 6.25 µM. For `CC[C@H](C)[C@H](NC(=O)[C@@H]1CCCN1C(=O)[C@@H](NC(=O)[C@H](CS)NC(=O)[C@H](Cc1ccc(O)cc1)NC(=O)[C@H](CO)NC(=O)[C@H](CCCCN)NC(=O)[C@H](CCCNC(=N)N)NC(=O)[C@H](CS)NC(=O)[C@H](CCCNC(=N)N)NC(=O)[C@@H](NC(=O)[C@H](CC(N)=O)NC(=O)[C@H](C)NC(=O)[C@H](CCCNC(=N)N)NC(=O)[C@H](CCCNC(=N)N)NC(=O)[C@H](CC(C)C)NC(=O)[C@H](CCCCN)NC(=O)[C@@H]1CCCN1C(=O)[C@H](CS)NC(=O)[C@H](CC(=O)O)NC(=O)[C@H](CCCCN)NC(=O)[C@H](CC(N)=O)NC(=O)[C@@H](NC(=O)[C@H](CCCCN)NC(=O)[C@H](CS)NC(=O)[C@H](CC(=O)O)NC(=O)[C@H](CO)NC(=O)[C@H](CC(C)C)NC(=O)[C@@H](NC(=O)[C@H](CC(C)C)NC(=O)[C@H](CO)NC(=O)[C@H](Cc1ccccc1)NC(=O)[C@@H](N)Cc1c[nH]cn1)[C@@H](C)CC)[C@@H](C)O)C(C)C)C(C)C)C(N)=O` [NCR335C1–33] (H-HFSLILSDCKTNKDCPKLRRANVRCRKSYCVPI-NH2; N-terminus assumed), the “fungistatic or fungicide mode of action” value in assay [3] was “fungicidal effect”. `C[C@@H]1[C@H](O)[C@@H](C)/C=C/C=C/C=C/C=C/C=C/C=C/C=C/[C@H](O[C@@H]2O[C@H](C)[C@@H](O)[C@H](N)[C@@H]2O)C[C@@H]2O[C@](O)(C[C@@H](O)C[C@@H](O)[C@H](O)CC[C@@H](O)C[C@@H](O)CC(=O)O[C@H]1C)C[C@H](O)[C@H]2C(=O)O` [amphotericin B, reference compound]: in assay [1] (setting [4]), the MIC was determined as 1.56 µM. Regarding “CKTNKDCP [NCR335C9–16, short derivative of NCR335 C-terminal region]”, in assay [1], the MIC entry was “lacked inhibitory effect”. Still for that read-out and setting: the value for “FWGQNRNIMKHRGQ [NCR335N16–29, 14 amino acid-long N-terminal fragment of NCR335]” was “ineffective”. Still for that read-out and setting: the same measure for “HFSLILSD [NCR335C1–8, short derivative of NCR335 C-terminal region]”: “lacked inhibitory effect”; for “HFSLILSDCKTNKDCP [NCR335C1–16, short derivative of NCR335 C-terminal region]”: “lacked inhibitory effect”. Consider “KLRRANVRCRK [NCR335C17–27, further truncation of NCR335C17–33]”, for which the MIC entry in assay [1] is on record as “lacked inhibitory effect”. In the case of “RLNTTFRPLNFKMLRFWGQNRNIMKHRGQKVHFSLILSDCKTNKDCPKLRRANVRCRKSYCVPI [NCR335, 64-amino-acid-long cationic M. truncatula NCR peptide]”, the MIC in assay [1] (read-out: MIC) amounted to 3.12 µM.
